From PubChem BioAssay AID1918996 (Molecular Pharmacology Branch, DTP, NCI, 2023)

System: 349418-098-R-PDC complex spheroid growth
Test: Anticancer human tumor 349418-098-R-PDC patient-derived lung adenocarcinoma cell line growth inhibition [AhR]
Conditions: for IC50: curve of first compound; for viability, T/C: stronger effect = lower value
Summary of the method: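 Complex tumor spheroids co-cultured with HUVEC and human MSC stroma; AhR antagonists tested in combination with standard-of-care and investigational agents. Top concentration at or near clinical Cmax (else 10 microM), half-log dilutions; growth expressed as percent test/control.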

[1] = second compound 0.1 µM, first compound 0.00316 µM
[2] = second compound 0.1 µM, first compound 0.01 µM
[3] = second compound 0.1 µM, first compound 0.0316 µM
[4] = second compound 0.1 µM, first compound 0.1 µM
[5] = second compound 0.316 µM, first compound 0.00316 µM
[6] = second compound 0.316 µM, first compound 0.01 µM
[7] = second compound 0.316 µM, first compound 0.0316 µM
[8] = second compound 0.316 µM, first compound 0.1 µM
[9] = second compound 1 µM, first compound 0.00316 µM
[10] = second compound 1 µM, first compound 0.01 µM
[11] = second compound 1 µM, first compound 0.0316 µM
[12] = second compound 1 µM, first compound 0.1 µM
[13] = second compound 3.16 µM, first compound 0.00316 µM
[14] = second compound 3.16 µM, first compound 0.01 µM
[15] = second compound 3.16 µM, first compound 0.0316 µM
[16] = second compound 3.16 µM, first compound 0.1 µM
[17] = second compound 10 µM, first compound 0.00316 µM
[18] = second compound 10 µM, first compound 0.01 µM
[19] = second compound 10 µM, first compound 0.0316 µM
[20] = second compound 10 µM, first compound 0.1 µM
[21] = second compound 0.1 µM, first compound 0.316 µM
[22] = second compound 0.1 µM, first compound 1 µM
[23] = second compound 0.1 µM, first compound 3.16 µM
[24] = second compound 0.1 µM, first compound 10 µM
[25] = second compound 0.316 µM, first compound 0.316 µM
[26] = second compound 0.316 µM, first compound 1 µM
[27] = second compound 0.316 µM, first compound 3.16 µM
[28] = second compound 0.316 µM, first compound 10 µM
[29] = second compound 1 µM, first compound 0.316 µM
[30] = second compound 1 µM, first compound 1 µM
[31] = second compound 1 µM, first compound 3.16 µM
[32] = second compound 1 µM, first compound 10 µM
[33] = second compound 3.16 µM, first compound 0.316 µM
[34] = second compound 3.16 µM, first compound 1 µM
[35] = second compound 3.16 µM, first compound 3.16 µM
[36] = second compound 3.16 µM, first compound 10 µM
[37] = second compound 10 µM, first compound 0.316 µM
[38] = second compound 10 µM, first compound 1 µM
[39] = second compound 10 µM, first compound 3.16 µM
[40] = second compound 10 µM, first compound 10 µM
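Further: spheroids exposed to agents for seven days before luminescence viability read.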
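Wherever viability, T/C is given: spheroids also contain HUVEC endothelial cells and human MSC stroma.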

| Structure (SMILES) | IC50 (second compound 0.1 µM) [nM] | IC50 (second compound 0.316 µM) [nM] | IC50 (second compound 1 µM) [nM] | IC50 (second compound 3.16 µM) [nM] | IC50 (second compound 10 µM) [nM] | viability, T/C [3] [%] | viability, T/C [4] [%] | viability, T/C [7] [%] | viability, T/C [8] [%] | viability, T/C [11] [%] | viability, T/C [12] [%] | viability, T/C [15] [%] | viability, T/C [16] [%] | viability, T/C [19] [%] | viability, T/C [20] [%] | viability, T/C [21] [%] | viability, T/C [22] [%] | viability, T/C [25] [%] | viability, T/C [26] [%] | viability, T/C [29] [%] | further results |
| --- | --- | --- | --- | --- | --- | --- | --- | --- | --- | --- | --- | --- | --- | --- | --- | --- | --- | --- | --- | --- | --- |
| CC[C@@]1(O)C(=O)OCc2c1cc1n(c2=O)Cc2cc3c(CN(C)C)c(O)ccc3nc2-1 + Cc1cncc(-c2nc(NCCc3c[nH]c4ccccc34)c3ncn(C(C)C)c3n2)c1 | 15.3 | 14.1 | 14.4 | < 0.316 | < 0.316 | 29.4 | 6.14 | 23.8 | 6.37 | 24.5 | 7.22 | 10.1 | 5.91 | 1.32 | 1.19 |  |  |  |  |  | viability, T/C (second compound 0.1 µM, first compound 0.000316 µM): 102%; viability, T/C (second compound 0.1 µM, first compound 0.001 µM): 93.9%; viability, T/C [1]: 91.6%; viability, T/C [2]: 60.7%; viability, T/C (second compound 0.316 µM, first compound 0.000316 µM): 87.3%; viability, T/C (second compound 0.316 µM, first compound 0.001 µM): 94%; viability, T/C [5]: 86.4%; viability, T/C [6]: 60.3%; viability, T/C (second compound 1 µM, first compound 0.000316 µM): 90.6%; viability, T/C (second compound 1 µM, first compound 0.001 µM): 93.5%; viability, T/C [9]: 84.2%; viability, T/C [10]: 62%; viability, T/C (second compound 3.16 µM, first compound 0.000316 µM): 24.8%; viability, T/C (second compound 3.16 µM, first compound 0.001 µM): 19.5%; viability, T/C [13]: 21%; viability, T/C [14]: 14.4%; viability, T/C (second compound 10 µM, first compound 0.000316 µM): 1.41%; viability, T/C (second compound 10 µM, first compound 0.001 µM): 1.47%; viability, T/C [17]: 1.56%; viability, T/C [18]: 1.49% |
| COc1cc(C2c3cc4c(cc3C(OC3OC5COC(C)OC5C(O)C3O)C3COC(=O)C23)OCO4)cc(OC)c1O (stereo not given) + Cc1cncc(-c2nc(NCCc3c[nH]c4ccccc34)c3ncn(C(C)C)c3n2)c1 | 476 | 384 | 426 | < 31.6 | < 31.6 | 97.8 | 99 | 103 | 86.5 | 93.3 | 90.9 | 24 | 19.2 | 1.7 | 1.71 | 62.4 | 24.9 | 58.3 | 19.1 | 59.6 | viability, T/C [23]: 9.98%; viability, T/C [24]: 4.8%; viability, T/C [27]: 8.45%; viability, T/C [28]: 5.08%; viability, T/C [30]: 20.9%; viability, T/C [31]: 9.01%; viability, T/C [32]: 6.23%; viability, T/C [33]: 14.8%; viability, T/C [34]: 10.2%; viability, T/C [35]: 7.3%; viability, T/C [36]: 4.57%; viability, T/C [37]: 1.45%; viability, T/C [38]: 1.18%; viability, T/C [39]: 1.04%; viability, T/C [40]: 1.29% |
| COc1cccc2c1C(=O)c1c(O)c3c(c(O)c1C2=O)CC(O)(C(=O)CO)CC3OC1CC(N)C(O)C(C)O1 (stereo not given) + Cc1cncc(-c2nc(NCCc3c[nH]c4ccccc34)c3ncn(C(C)C)c3n2)c1 | < 31.6 | < 31.6 | < 31.6 | < 31.6 | < 31.6 | 12.1 | 6.61 | 11.5 | 6.41 | 10.5 | 4.41 | 4.44 | 3.03 | 0.79 | 0.69 | 1.44 | 0.29 | 1.16 | 0.42 | 1.26 | viability, T/C [23]: 2.68%; viability, T/C [24]: 3.48%; viability, T/C [27]: 2.47%; viability, T/C [28]: 4%; viability, T/C [30]: 0.31%; viability, T/C [31]: 2.61%; viability, T/C [32]: 3.54%; viability, T/C [33]: 0.5%; viability, T/C [34]: 0.32%; viability, T/C [35]: 2.14%; viability, T/C [36]: 3.34%; viability, T/C [37]: 0.23%; viability, T/C [38]: 0.5%; viability, T/C [39]: 1.35%; viability, T/C [40]: 1.99% |
| Nc1ncn(C2CC(O)C(CO)O2)c(=O)n1 (stereo not given) + Cc1cncc(-c2nc(NCCc3c[nH]c4ccccc34)c3ncn(C(C)C)c3n2)c1 | 177 | 221 | 305 | < 3.16 | < 3.16 | 80.3 | 59.9 | 83.2 | 69.9 | 82.7 | 68.6 | 21.9 | 17.4 | 1.75 | 1.51 | 40.9 | 29.1 | 40.7 | 25.7 | 50.1 | viability, T/C [1]: 88.5%; viability, T/C [2]: 97.9%; viability, T/C [5]: 93%; viability, T/C [6]: 88.3%; viability, T/C [9]: 84.6%; viability, T/C [10]: 87.2%; viability, T/C [30]: 34.3%; viability, T/C [13]: 20.6%; viability, T/C [14]: 21.6%; viability, T/C [33]: 17.7%; viability, T/C [34]: 16.2%; viability, T/C [17]: 1.51%; viability, T/C [18]: 1.55%; viability, T/C [37]: 1.2%; viability, T/C [38]: 1.31% |
